From patent US20240299328A1, “COMPOSITIONS COMPRISING 15-HEPE AND METHODS OF TREATING AND/OR PREVENTING HEMATOLOGIC DISORDERS AND RELATED DISEASES” (Afimmune Limited, priority 2023, published 2024)
Where two headings read alike, the source gives them in different places.

Experiments:
[1] = tested on: adhesion of SCD patient RBCs to heme-activated HUVECs; experiment: Endothelialized microfluidic system: SCD patient RBC adhesion to heme-activated HUVECs; type: cell-based, human; conditions: 6 hours, n=7; for adhesion of RBCs to heme-activated endothelium: treatment of RBCs; for adhesion of SCD patient RBCs to endothelium: treatment of heme-activated HUVECs
Procedure: Whole blood samples were collected from 7 SCD subjects with HbSS genotype at University Hospitals Cleveland Medical Center, Cleveland, OH, USA. RBCs were isolated after centrifugation of whole blood collected in EDTA and were resuspended in basal cell culture medium (EBM; Lonza, Morristown, NJ, USA) with 10 mM of HEPES to reach 20% hematocrit. Human umbilical vein endothelial cells (HUVECs; Lonza, Morristown, NJ, USA) were seeded within the microfluidic channels and cultured for at least 72 hours at 15 dyne/cm2 prior to experiments. Tested concentrations of 15(S)-HEPE were selected based on clinical pharmacokinetics for 15(S)-HEPE at 2 g/day and 4 g/day Epeleuton doses. Incubation of RBCs or HUVECs with 15(S)-HEPE was conducted at 37° C. for 6 hours. In one experiment 15(S)-HEPE-treated tor vehicle-treated RBCs flowed on untreated HUVECs and in the second experiment untreated RBCs flowed on 15(S)-HEPE-treated or vehicle-treated […]. In both cases a short-term acute activation was conducted where RBCs were supplemented with 40 μM heme and injected through the microfluidic channels for 15 minutes. Non-adherent RBCs were washed with basal cell culture medium. Phase-contrast images of the remaining RBCs were recorded using inverted microscope (DMi8 Leica Microsystems Inc. Deerfield, IL, USA) and the images were analyzed based on previous published methods. Statistical significance was assessed using paired t-test

[2] = tested on: TGF-β signaling in HepG2 cells; experiment: TGF-β-induced EMT protein expression and type II TGF-β receptor in HepG2 cells; type: cell-based, human
Procedure: The effects of 15-HEPE on TGF-β-induced signaling and cellular responses were determined. To test the effect of 15-HEPE on TGF-β-induced signaling, the activities of 15-HEPE to regulate TGF-β-stimulated Smad2 phosphorylation and nuclear translocation, both of which are key signaling events leading to TGF-β-induced cellular responses, were tested. One important biological activity of TGF-β is transcriptional activation of genes responsible for epithelial-mesenchymal transition (EMT), which is a crucial event in wound healing, tissue fibrosis, and cancer progression. The effect of 15-HEPE on TGFβ-induced epithelial mesenchymal transition related proteins (such as fibronectin, PAI-1, and N-cadherin etc.) expression in HepG2 and LXR cells were assessed. HepG2 cells (human hepatoma cell line) were treated in increasing doses of 15-HEPE stage II in DMEM containing 0.1% of FBS for 1 hour and continually stimulated with or without 200 picomolar (pM) of TGF-β for 48 hours. […] HepG2 cells (human hepatoma cell line) were treated in increasing doses of 15-HEPE stage II in DMEM containing 0.1% of FBS for 1 hour and continually stimulated with or without 200 picomolar (pM) of TGF-β for 48 hours. The two panels shown in FIG. 18A are two separate experiments run under the same experimental conditions.

[3] = tested on: TGF-β-stimulated intracellular signaling (SMAD2/3 phosphorylation) in LX2 cells; experiment: TGF-β-stimulated SMAD2/3 phosphorylation in LX2 liver stellate cells; type: cell-based, human; conditions: 0 μM to 100 μM for 24 hours, then 30 min TGF-β stimulation
[4] = tested on: TβR-I, TβR-II, TβR-III, EGFR and caveolin-1 in Mv1Lu cells; experiment: Sucrose density gradient analysis of TGF-β receptors in Mv1Lu plasma membranes; type: cell-based, mink
Procedure: The sucrose gradient fractions were then analyzed by Western blot analysis using anti-TβR-I (type I TGF-β receptor), anti-TβR-II (type II TGF-β receptor), anti-TβR-III (type III TGF-β receptor, betaglycan), anti-EGFR (epidermal growth factor receptor), and anti-caveolin-1 antibodies.
The sucrose gradient fractions were then analyzed by Western blot analysis using anti-TβR-I (type I TGF-β receptor-FIG. 18C), anti-TβR-II (type II TGF-β receptor-FIG. 18D), anti-TβR-III (type III TGF-β receptor, betaglycan-FIG. 18E), anti-EGFR (epidermal growth factor receptor-FIG. 18F), and anti-caveolin-1 antibodies (FIG. 18G).

UUO mice [5] = type: in vivo
Procedure: UUO Surgery: On day 0 of the study, UUO surgery was performed on mice under pentobarbital sodium anesthesia. The mouse's hair was first shaved and then abdomen cut open to exteriorize the mouse's left ureter. The ureter was ligated 4-0 nylon sutures at two points. The mouse's peritoneum and skin were then closed with sutures, and the mouse transferred to a clean cage until recovered from the anesthesia. Sham operated mice had their left ureter exposed but not ligated. […]
Animals: Seven-week-old female C57BL/6 mice (i.e., animals) were obtained and were housed and fed with a normal diet under controlled conditions. The animals were maintained in a specific-pathogen free (SPF) facility under controlled conditions of temperature (e.g., 23±2° C.), humidity (e.g., 45±10%), lighting (e.g., 12-hour artificial light and dark cycles; light from 8:00 to 20:00) and air exchange. A high pressure was maintained in the experimental room to prevent contamination of the facility. The animals were housed in TPX cages with a maximum of 4 mice per cage. Sterilized Paper-Clean was used for bedding and replaced once a week. Sterilized solid normal diet was provided ad libitum, being placed in a metal lid on the top of the cage. Pure water was also provided ad libitum from a water bottle equipped with a rubber stopper and a sipper tube. Water bottles were replaced once a week, cleaned, and sterilized in an autoclave and reused. Mice were identified by ear punch and each cage was labeled with a specific identification code.
Animal Monitoring and Sacrifice: The viability, clinical signs and behavior for the mice were monitored daily. Individual body weight was measured daily before treatment during the treatment period. […] The animals were sacrificed by exsanguination through direct cardiac puncture under isoflurane anesthesia at Day 14.

UUO mice [6] = experiment: UUO study: Sirius red staining, kidney fibrosis area; type: in vivo
Procedure: Histopathological analysis: To visualize collagen deposition, kidney sections were stained using picro-Sirius red solution. For quantification of interstitial fibrosis area, bright field images in the corticomedullary region were captured using a digital camera at 200-fold magnification, and the positive areas in 5 fields/section were measured.

[7] = tested on: α-SMA, TIMP-1, TGF-β and Collagen Type 1 mRNA; experiment: UUO study: quantitative RT-PCR of kidney; type: in vivo; conditions: UUO mice kidney, normalized to 36B4, Day 14, mean ± SD
Procedure: Quantitative RT-PCR: Total ribonucleic acid (RNA) was extracted from kidney samples using RNAiso. One μg of RNA was reverse-transcribed using a reaction mixture containing […] (mM) of magnesium chloride (MgCl2), 40 U RNase inhibitor, 0.5 mM dNTP, 6.28 µM random hexamer, 5× first strand buffer, 10 mM dithiothreitol and 200 U MMLV-RT in a final volume of 20 μL. The reaction was carried out for 1 hour at 37° C., followed by 5 minutes at 99° C. Real-time PCR was performed using real-time PCR DICE and TB Green™ Premix Ex Taq™ II. To calculate the relative […] (mRNA) expression level, the expression of each gene (e.g., α-SMA, TIMP-1, TGF-β and Collagen Type 1) was normalized to that of reference gene 36B4 (gene symbol: Rplp0). Information regarding the PCR-primer sets and the plate layout are described in Tables 1 and 2.

[8] = HepG2 cells, increasing doses, 1 hour, then with or without 200 pM TGF-β for 48 hours
[9] = 5 mg/kg PO QD Day 0-13, Day 14, mean ± SD
[10] = 50 mg/kg PO QD Day 0-13, Day 14, mean ± SD
[11] = 250 mg/kg PO QD Day 0-13, Day 14, mean ± SD

SMILES: CC/C=C\C[C@H](O)/C=C/C=C\C/C=C\C/C=C\CCCC(=O)O [15(S)-HEPE, 15(S)-hydroxy-(5Z,8Z,11Z,13E,17Z)-eicosapentaenoic acid]
- adhesion of RBCs to heme-activated endothelium ([1]; 50 µM, p=0.01): significantly decreased
- adhesion of RBCs to heme-activated endothelium ([1]; 100 µM, p=0.001): significantly decreased
- adhesion of SCD patient RBCs to endothelium ([1]; 50 μM, p=0.03): significantly decreased
- adhesion of SCD patient RBCs to endothelium ([1]; 100 μM, p=0.01): significantly decreased

SMILES: CC/C=C\CC(O)/C=C/C=C\C/C=C\C/C=C\CCCC(=O)O (stereo not shown) [15-HEPE, 15-hydroxy-eicosa-5Z,8Z,11Z,13E, 17Z-pentaenoic acid]
- TGF-β induced epithelial mesenchymal transition (EMT) (pro-fibrotic) protein production [2, 8]: blocked
- type II TGF-β receptor [2, 8]: induced degradation
- TGF-β signaling ([2]; liver cell lines (HepG2, LX2)): directly inhibit
- TGF-β-stimulated intracellular signaling (SMAD2/3 phosphorylation) [3]: inhibits
- localization and abundance of TβR-III, EGFR and caveolin-1 ([4]; 100 μM, 0, 1, 4, 24 hours): did not change
- abundance of TβR-I proteins ([4]; 100 μM, 37° C., 0, 1, 4, 24 hours): did not affect the abundance
- TβR-II degradation ([4]; 100 μM, 24 hours treatment): induce degradation
- translocation of TβR-I to lipid-raft ([4]; 100 μM, 24 hours treatment): induced translocation
- TβR-II translocation ([4]; 100 μM, from 1 to 4 hours): induced TβR-II translocation

SMILES: CCCCCC(O)/C=C/C=C\C/C=C\CCCCCCC(=O)O (stereo not shown) [DS109, 15-hydroxy-eicosa-8Z, 11Z, 13E-trienoic acid]
- Body Weight (UUO mice [5]; [9]): 19.1 ± 0.9 g
- Left Kidney Weight (UUO mice [5]; [9]): 533 ± 138 mg
- Left Kidney-to-Body Weight Ratio (UUO mice [5]; [9]): 2.79 ± 0.65%
- Right Kidney Weight (UUO mice [5]; [9]): 137 ± 7 mg
- Right Kidney-to-Body Weight Ratio (UUO mice [5]; [9]): 0.71 ± 0.04%
- Body Weight (UUO mice [5]; [10]): 18.6 ± 0.6 g
- Left Kidney Weight (UUO mice [5]; [10]): 523 ± 91 mg
- Left Kidney-to-Body Weight Ratio (UUO mice [5]; [10]): 2.83 ± 0.50%
- Right Kidney Weight (UUO mice [5]; [10]): 135 ± 6 mg
- Right Kidney-to-Body Weight Ratio (UUO mice [5]; [10]): 0.73 ± 0.05%
- Body Weight (UUO mice [5]; [11]): 18.6 ± 0.7 g
- Left Kidney Weight (UUO mice [5]; [11]): 425 ± 105 mg
- Left Kidney-to-Body Weight Ratio (UUO mice [5]; [11]): 2.26 ± 0.53%
- Right Kidney Weight (UUO mice [5]; [11]): 130 ± 13 mg
- Right Kidney-to-Body Weight Ratio (UUO mice [5]; [11]): 0.70 ± 0.05%
- Sirius red-positive area (%)_Median (UUO mice [6]; 5 mg/kg PO QD Day 0-13, Day 14, median): 3.22 ± 1.47%
- Sirius red-positive area (%)_Median (UUO mice [6]; 50 mg/kg PO QD Day 0-13, Day 14, median): 3.28 ± 1.41%
- Sirius red-positive area (%)_Median (UUO mice [6]; 250 mg/kg PO QD Day 0-13, Day 14, median): 3.76 ± 0.81%
- Alpha-SMA mRNA expression level ([7]; 5 mg/kg PO QD Day 0-13): 3.87 ± 0.82
- Collagen Type 1 mRNA expression level ([7]; 5 mg/kg PO QD Day 0-13): 10.76 ± 1.45
- TGF-β mRNA expression level ([7]; 5 mg/kg PO QD Day 0-13): 4.29 ± 0.93
- TIMP-1 mRNA expression level ([7]; 5 mg/kg PO QD Day 0-13): 153.60 ± 37.12
- Alpha-SMA mRNA expression level ([7]; 50 mg/kg PO QD Day 0-13): 4.61 ± 3.15
- Collagen Type 1 mRNA expression level ([7]; 50 mg/kg PO QD Day 0-13): 15.23 ± 11.52
- TGF-β mRNA expression level ([7]; 50 mg/kg PO QD Day 0-13): 6.01 ± 4.77
- TIMP-1 mRNA expression level ([7]; 50 mg/kg PO QD Day 0-13): 167.70 ± 122.60
- Alpha-SMA mRNA expression level ([7]; 250 mg/kg PO QD Day 0-13): 4.85 ± 1.22
- Collagen Type 1 mRNA expression level ([7]; 250 mg/kg PO QD Day 0-13): 13.88 ± 1.91
- TGF-β mRNA expression level ([7]; 250 mg/kg PO QD Day 0-13): 5.48 ± 0.36
- TIMP-1 mRNA expression level ([7]; 250 mg/kg PO QD Day 0-13): 180.90 ± 23.12
